From patent US20140135310A1, “SULPHONAMIDE DERIVATIVES OF ALICYCLIC AMINES FOR THE TREATMENT OF CENTRAL NERVOUS SYSTEM DISEASES” (Adamed Sp. z o.o., priority 2011, published 2014)

Tests used:
[1] = target: T1, receptors D4.4 (Homo sapiens, UniProt P21917); test: Radioligand binding assay, dopaminergic D4 (D4.4) receptors; settings: test compound 1×10^−6 M
T1 sequence (P21917 1-419): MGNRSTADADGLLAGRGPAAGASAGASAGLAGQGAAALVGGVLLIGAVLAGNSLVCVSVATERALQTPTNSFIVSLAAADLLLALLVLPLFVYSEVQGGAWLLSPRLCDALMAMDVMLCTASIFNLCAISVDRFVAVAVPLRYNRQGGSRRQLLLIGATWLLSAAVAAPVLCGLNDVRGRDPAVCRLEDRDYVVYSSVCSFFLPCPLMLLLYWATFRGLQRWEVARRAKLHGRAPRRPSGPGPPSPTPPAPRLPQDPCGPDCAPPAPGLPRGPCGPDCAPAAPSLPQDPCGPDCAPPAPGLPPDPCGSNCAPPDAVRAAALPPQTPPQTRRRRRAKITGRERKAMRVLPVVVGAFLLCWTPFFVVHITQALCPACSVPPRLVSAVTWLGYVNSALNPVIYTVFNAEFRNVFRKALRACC
From the text: (§1) The specific ligand binding to the receptors is defined as the difference between the total binding and the non-specific binding determined in the presence of the excess of unlabelled ligand.
(§2) The results are expressed as a percent of control specific binding ((measured specific binding/control specific binding)×100) and as a percent inhibition of control specific binding (100−((measured specific binding/control specific binding)×100)) obtained in the presence of the test compounds. The specific ligand binding to the receptors is defined as the difference between the total binding and the nonspecific binding determined in the presence of an excess of unlabelled ligand. Scintillation counting was the method of detection of ligand binding. The IC50 values (concentration causing a half-maximal inhibition of control specific binding) were determined by non-linear regression analysis of the competition curves generated with mean replicate values using Hill equation curve fitting (Y=D+[(A−D)/(1+(C/C50)nH)], where Y=specific binding, D=minimum specific binding, A=maximum specific binding, C=compound concentration, C50=IC50, and nH=slope factor). This analysis was performed using a software developed at Cerep (Hill software) and validated by comparison with data generated by the commercial software SigmaPlot® 4.0 for Windows® (© 1997 by SPSS Inc.). The inhibition constants (Ki) were calculated using the Cheng Prusoff equation (Ki=IC50/(1+(L/KD)), where L=concentration of radioligand in the assay, and KD=affinity of the radioligand for the receptor). A scatchard plot was used to determine the Kd.
Experimental conditions for tests are given in Table 1, the results of tests for representative compounds are given in Tables 2a and 2b (receptors D2 and D3) and in Table 3 (receptors D4).

[2] = target: T2, 5-HT6 receptor (Homo sapiens, UniProt P50406); test: Radioligand binding assay, serotoninergic 5-HT6 receptors; settings: for inhibition at 1 µM / 5-HT6 [%]: binding assay result in %, Table 5a; for Ki: read-out: Inhibition constants Ki, 5-HT6;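 on 5-HT6 [%]: test compound at 1 µM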
T2 construct: purchased PerkinElmer
T2 sequence (P50406 whole entry): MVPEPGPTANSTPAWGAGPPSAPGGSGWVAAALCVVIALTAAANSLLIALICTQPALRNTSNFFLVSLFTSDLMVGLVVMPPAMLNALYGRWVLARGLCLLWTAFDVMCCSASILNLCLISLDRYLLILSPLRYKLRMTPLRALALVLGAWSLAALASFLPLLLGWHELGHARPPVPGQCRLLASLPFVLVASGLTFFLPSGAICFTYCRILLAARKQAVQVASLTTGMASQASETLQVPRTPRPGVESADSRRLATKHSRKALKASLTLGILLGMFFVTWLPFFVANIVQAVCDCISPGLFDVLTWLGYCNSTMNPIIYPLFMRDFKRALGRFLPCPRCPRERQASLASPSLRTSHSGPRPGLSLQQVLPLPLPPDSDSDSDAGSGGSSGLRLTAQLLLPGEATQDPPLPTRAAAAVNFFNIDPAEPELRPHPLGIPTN
Summary of the method: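 Values are Ki from Cheng–Prusoff, taking IC50 from Hill nonlinear regression of competition curves and KD from a Scatchard plot. Specific binding was total minus binding with excess unlabelled ligand. Radioligand displacement was detected by scintillation counting, and data were also reported as percent of control specific binding.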

[3] = target: T3, M3 muscarinic receptors (Homo sapiens, UniProt P20309); test: Radioligand binding assay, muscarinic M3 receptors; settings: test compound 1×10^−6 M
T3 construct: expressed in transfected cells; host or cells: CHO cells
T3 sequence (P20309 whole entry): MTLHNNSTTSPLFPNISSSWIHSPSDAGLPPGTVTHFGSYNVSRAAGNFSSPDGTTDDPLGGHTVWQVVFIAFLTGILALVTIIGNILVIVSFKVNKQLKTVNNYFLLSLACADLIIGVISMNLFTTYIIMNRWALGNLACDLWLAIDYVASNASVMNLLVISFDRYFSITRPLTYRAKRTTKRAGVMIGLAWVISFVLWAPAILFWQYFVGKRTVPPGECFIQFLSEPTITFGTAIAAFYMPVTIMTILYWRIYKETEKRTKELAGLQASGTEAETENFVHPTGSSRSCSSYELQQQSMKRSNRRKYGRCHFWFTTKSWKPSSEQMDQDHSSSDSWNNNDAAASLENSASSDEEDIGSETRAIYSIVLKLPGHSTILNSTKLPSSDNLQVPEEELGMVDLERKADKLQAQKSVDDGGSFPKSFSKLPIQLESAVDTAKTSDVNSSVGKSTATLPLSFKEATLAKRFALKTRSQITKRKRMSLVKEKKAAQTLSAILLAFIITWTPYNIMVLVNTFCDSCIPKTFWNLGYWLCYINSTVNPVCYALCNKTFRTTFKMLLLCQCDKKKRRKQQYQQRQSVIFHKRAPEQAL
From the text: as §1, §2
Experimental conditions for tests are given in Table 10, and results of tests for representative compounds are given in Table 11.

[4] = target: T4, 5-HT2A receptor (Homo sapiens, UniProt P28223); test: Radioligand binding assay, serotoninergic 5-HT2A receptors; settings: for Ki: read-out: Inhibition constants Ki, 5-HT2A
T4 construct: purchased PerkinElmer
T4 sequence (P28223 whole entry): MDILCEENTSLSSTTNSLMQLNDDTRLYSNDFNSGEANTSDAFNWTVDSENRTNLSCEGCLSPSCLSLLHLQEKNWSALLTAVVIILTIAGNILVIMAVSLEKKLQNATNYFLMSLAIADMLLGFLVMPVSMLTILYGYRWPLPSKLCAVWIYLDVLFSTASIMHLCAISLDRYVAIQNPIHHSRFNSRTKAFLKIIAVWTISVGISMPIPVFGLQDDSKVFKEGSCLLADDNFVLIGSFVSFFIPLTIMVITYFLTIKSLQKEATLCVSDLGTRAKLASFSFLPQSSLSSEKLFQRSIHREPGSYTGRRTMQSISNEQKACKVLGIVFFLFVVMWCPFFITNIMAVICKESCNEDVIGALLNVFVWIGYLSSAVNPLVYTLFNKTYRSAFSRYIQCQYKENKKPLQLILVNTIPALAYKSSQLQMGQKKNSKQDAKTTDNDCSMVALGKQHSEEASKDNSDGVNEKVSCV
Summary of the method: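 Competition curves from scintillation-counted specific binding (total minus binding with excess unlabelled ligand) were Hill-fitted to give IC50, converted to Ki via Cheng-Prusoff using Scatchard-derived Kd.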

[5] = target: dopaminergic receptors D3 (Homo sapiens, UniProt P35462); test: Radioligand binding assay, dopaminergic D3 receptors; settings: test compound 1×10^−6 M
Sequence of dopaminergic receptors D3 (P35462 whole entry): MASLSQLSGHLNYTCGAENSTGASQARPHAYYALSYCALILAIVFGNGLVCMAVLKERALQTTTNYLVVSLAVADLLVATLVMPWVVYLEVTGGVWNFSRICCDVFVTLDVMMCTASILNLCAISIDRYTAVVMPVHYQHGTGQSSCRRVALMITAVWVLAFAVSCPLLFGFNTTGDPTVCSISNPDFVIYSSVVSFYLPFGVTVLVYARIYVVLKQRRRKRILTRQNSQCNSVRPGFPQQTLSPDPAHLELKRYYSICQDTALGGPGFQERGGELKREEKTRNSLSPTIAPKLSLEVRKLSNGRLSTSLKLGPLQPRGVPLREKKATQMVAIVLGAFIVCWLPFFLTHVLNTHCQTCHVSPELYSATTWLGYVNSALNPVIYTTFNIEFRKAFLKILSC
Summary of the method: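 Scintillation read-out. Specific = total − nonspecific (excess cold ligand). Data as % of control specific binding / % inhibition; IC50 by Hill fit; Ki = IC50/(1+L/KD), KD from Scatchard plot.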

[6] = target: T5, H1 histaminergic receptors (Homo sapiens, UniProt P35367); test: Radioligand binding assay, histaminergic H1 receptors; settings: human recombinant (HEK-293 cells), [3H]pyrilamine 1 nM
T5 construct: expressed in transfected cells; host or cells: HEK-293 cells
T5 sequence (P35367 whole entry): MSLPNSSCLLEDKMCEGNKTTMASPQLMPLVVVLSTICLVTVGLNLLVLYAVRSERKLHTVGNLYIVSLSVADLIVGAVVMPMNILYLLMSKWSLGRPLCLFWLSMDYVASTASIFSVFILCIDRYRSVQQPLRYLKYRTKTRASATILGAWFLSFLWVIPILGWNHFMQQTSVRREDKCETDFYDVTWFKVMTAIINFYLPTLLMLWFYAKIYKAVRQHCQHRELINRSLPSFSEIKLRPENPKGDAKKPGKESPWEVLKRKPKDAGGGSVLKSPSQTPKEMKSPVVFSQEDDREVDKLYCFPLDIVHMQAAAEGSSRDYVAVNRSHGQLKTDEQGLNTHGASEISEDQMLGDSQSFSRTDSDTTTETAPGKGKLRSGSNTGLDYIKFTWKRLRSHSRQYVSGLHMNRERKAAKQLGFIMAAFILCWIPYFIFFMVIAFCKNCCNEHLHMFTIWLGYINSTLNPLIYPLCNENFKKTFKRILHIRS
From the text: as §1, §2
Experimental conditions for tests are given in Table 14, and results of tests for representative compounds are presented in Table 15.

[7] = target: T6, 5-HT7 receptor (Homo sapiens, UniProt P34969); test: Radioligand binding assay, serotoninergic 5-HT7 receptors; settings: binding assay result in %, Table 5a;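 further: test compound at 1 µM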
T6 construct: purchased PerkinElmer
T6 sequence (P34969 whole entry): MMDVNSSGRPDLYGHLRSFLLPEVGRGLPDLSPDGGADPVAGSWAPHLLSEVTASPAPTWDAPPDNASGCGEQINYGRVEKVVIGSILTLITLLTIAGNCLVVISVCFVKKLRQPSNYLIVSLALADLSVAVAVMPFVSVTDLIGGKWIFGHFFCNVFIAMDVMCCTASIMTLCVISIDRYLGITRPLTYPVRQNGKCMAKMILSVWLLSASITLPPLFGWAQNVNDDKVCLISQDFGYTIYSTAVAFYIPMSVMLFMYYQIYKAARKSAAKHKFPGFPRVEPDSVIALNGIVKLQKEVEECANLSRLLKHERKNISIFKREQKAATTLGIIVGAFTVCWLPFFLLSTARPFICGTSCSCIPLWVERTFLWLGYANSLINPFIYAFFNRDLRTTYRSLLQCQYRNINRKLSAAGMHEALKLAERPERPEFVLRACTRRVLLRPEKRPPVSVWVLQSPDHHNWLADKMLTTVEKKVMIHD
Summary of the method: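 Ki values used the Cheng–Prusoff equation, with KD from Scatchard analysis, applied to IC50 from Hill fits of human 5-HT7 radioligand competition curves. Bound radioligand was counted by scintillation, and excess unlabelled ligand set the non-specific binding.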

[8] = target: T7, 5-HT2C receptor (Homo sapiens, UniProt P28335); test: Radioligand binding assay, serotoninergic 5-HT2C receptors; settings: test compound 1×10^−6 M
T7 construct: expressed in transfected cells; host or cells: HEK-293 cells
T7 sequence (P28335 33-458): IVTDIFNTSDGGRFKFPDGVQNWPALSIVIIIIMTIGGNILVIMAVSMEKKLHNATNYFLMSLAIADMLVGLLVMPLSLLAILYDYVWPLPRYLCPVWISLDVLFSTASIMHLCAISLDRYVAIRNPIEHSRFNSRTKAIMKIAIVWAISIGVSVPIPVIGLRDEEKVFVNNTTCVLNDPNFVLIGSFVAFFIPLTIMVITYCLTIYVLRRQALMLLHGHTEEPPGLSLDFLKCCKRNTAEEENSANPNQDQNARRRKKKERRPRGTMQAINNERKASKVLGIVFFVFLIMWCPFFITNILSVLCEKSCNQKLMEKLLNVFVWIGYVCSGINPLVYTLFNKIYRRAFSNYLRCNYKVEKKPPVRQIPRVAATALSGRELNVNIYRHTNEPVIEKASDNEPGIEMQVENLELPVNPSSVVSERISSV
From the text: as §1, §2
Experimental conditions for tests are given in Table 4, and results of tests for representative compounds of the invention are given in Table 5a and 5b (receptors 5-HT1A, 5-HT2A, 5-HT6 and 5-HT7) and in Table 6 (receptors 5-HT2C).

[9] = binding assay result in %, Table 5a

5-HT2A [%] [4, 9] [%] | Compound | inhibition at 1 µM [1] [%] | inhibition at 1 µM [2] [%] | inhibition at 1 µM [3] [%] | inhibition at 1 µM [4, 9] [%] | inhibition at 1 µM [5] [%] | inhibition at 1 µM [6] [%] | inhibition at 1 µM [7] [%] | inhibition at 1 µM [8] [%] | Ki [2] [nM] | Ki [4] [nM] | D4.4 [%] [1] [%] | 5-HT6 [%] [2] [%] | M3 [%] [3] [%] | D3 [%] [5] [%] | H1 [%] [6] [%] | 5-HT7 [%] [7] [%] | 5-HT2C [%] [8] [%]
 | O=S(=O)(NCC1CCN(CCOc2cccc3c2OCCO3)C1)c1ccc(F)c(Cl)c1 (stereo not drawn) [Compound 317, 3-Chloro-N-[[1-[2-(2,3-dihydro-1,4-benzodioxin-5-yloxy)ethyl]pyrrolidin-3-yl]methyl]-4-fluorobenzenesulphonamide] | 59 | 76 | 8 | 72 | 49 | 47 | 95 | 45 |  |  |  |  |  |  |  |  | 
 | O=S(=O)(NCC1CCN(CCCc2noc3cc(F)ccc23)C1)c1ccc2ccccc2c1 (stereo not drawn) [Compound 240, N-[[1-[3-(6-Fluoro-1,2-benzoxazol-3-yl)propyl]pyrrolidin-3-yl]methyl]-naphthalene-2-sulphonamide] | 57 | 93 | 21 | 99 | 75 | 55 | 90 | 81 |  |  |  |  |  |  |  |  | 
 | COc1ccc2cc(S(=O)(=O)NC3CCN(CCCc4noc5cc(F)ccc45)C3)ccc2c1 (stereo not drawn) [Compound 227, N-[1-[3-(6-Fluoro-1,2-benzoxazol-3-yl)propyl]pyrrolidin-3-yl]-6-methoxy-naphthalene-2-sulphonamide] | 88 | 94 | 13 |  | 96 | 69 | 91 | 82 |  |  |  |  |  |  |  |  | 
 | Cc1ccc2sc(S(=O)(=O)NC3CCN(CCCc4noc5cc(F)ccc45)C3)cc2c1 (stereo not drawn) [Compound 226, N-[1-[3-(6-Fluoro-1,2-benzoxazol-3-yl)propyl]pyrrolidin-3-yl]-5-methylbenzothiophene-2-sulphonamide] | 69 | 92 | 8 |  | 95 | 73 | 91 | 89 |  |  |  |  |  |  |  |  | 
 | Cc1c(S(=O)(=O)NC2CCN(CCCc3noc4cc(F)ccc34)C2)sc2ccc(Cl)cc12 (stereo not drawn) [Compound 29, 5-Chloro-N-[1-[3-(6-fluoro-1,2-benzoxazol-3-yl)propyl]pyrrolidin-3-yl]-3-methyl-benzothiophene-2-sulphonamide] | 16 | 92 | 30 |  | 85 | 59 | 52 | 28 |  |  |  |  |  |  |  |  | 
 | O=S(=O)(NC1CCN(CCCc2c[nH]c3ccc(F)cc23)C1)c1cccc2ccccc12 (stereo not drawn) [Compound 79, N-[1-[3-(5-Fluoro-1H-indol-3-yl)propyl]pyrrolidin-3-yl]naphthalene-1-sulphonamide] | 92 | 86 | -3 | 99 | 97 | 72 | 96 |  |  |  |  |  |  |  |  |  | 
 | O=S(=O)(NC1CCN(CCCc2noc3cc(F)ccc23)C1)c1cc2ccccc2o1 (stereo not drawn) [Compound 216, N-[1-[3-(6-Fluoro-1,2-benzoxazol-3-yl)propyl]pyrrolidin-3-yl]benzofuran-2-sulphonamide] | 87 | 97 | 28 |  | 85 | 61 | 99 | 62 |  |  |  |  |  |  |  |  | 
 | Cc1c(S(=O)(=O)NCC2CCN(CCCc3noc4cc(F)ccc34)C2)sc2ccc(Cl)cc12 (stereo not drawn) [Compound 238, 5-Chloro-N-[[1-[3-(6-fluoro-1,2-benzoxazol-3-yl)propyl]pyrrolidin-3-yl]methyl]-3-methyl-benzothiophene-2-sulphonamide] | 48 | 96 | 26 | 99 | 95 | 65 | 94 |  | 17 | 3 |  |  |  |  |  |  | 
 | N-[1-[3-(6-Fluoro-1,2-benzoxazol-3-yl)propyl]pyrrolidin-3-yl]-1-methyl-imidazole-4-sulphonamide [Compound 217] |  |  |  |  |  |  |  |  |  |  | 72 | 98 | 6 | 84 | 46 | 97 | 67
 | O=S(=O)(NC1CCN(CCCc2noc3cc(F)ccc23)C1)c1csc2ccccc12 (stereo not drawn) [Compound 26, N-[1-[3-(6-Fluoro-1,2-benzoxazol-3-yl)propyl]pyrrolidin-3-yl]-benzothiophene-3-sulphonamide] | 101 | 98 | 11 |  | 81 | 44 | 97 | 51 |  |  |  |  |  |  |  |  | 
99 | O=S(=O)(NC1CCN(CCOc2cccc3ccccc23)C1)c1cccc(O)c1 (stereo not drawn) [Compound 115, 3-Hydroksy-N-[1-[2-(1-naphthyloxy)ethyl]pyrrolidin-3-yl]benzenesulphonamide] |  |  |  |  |  |  |  |  |  |  | 55 | 88 | 13 | 97 | 72 | 98 | 
 | O=S(=O)(N[C@H]1CCN(CCCc2noc3cc(F)ccc23)C1)c1ccc2ccccc2c1 [Compound 207, N-[(3S)-1-[3-(6-Fluoro-1,2-benzoxazol-3-yl)propyl]pyrrolidin-3-yl]-naphthalene-2-sulphonamide] | 85 | 101 | 12 | 100 | 85 | 65 | 99 |  | 7.7 | 0.5 |  |  |  |  |  |  | 
